Measurements published in US11759462B2, “Spirocyclic compounds as tryptophan hydroxylase inhibitors” (priority 2013, dated 2023).
Where two headings read alike, the source gives them in different places.

Legend:
[1] = tested on: jejunal mucosal 5-HT in mice (C57 BL6); experiment: Intestinal 5-HT depletion assay (Example B, single 150 mg/kg oral dose); type: in vivo, mouse; settings: one day after oral administration of a single 150 mg/kg dose, P-value class (ANOVA)
Experimental: The efficacy of the TPH1 inhibitors of the invention was assessed for the ability to decrease intestinal serotonin concentration in mice. Mice (C57 BL6) were administered a single 150 mg/kg dose of test article by oral gavage. Each animal was euthanized by exsanguination under isoflurane anesthesia. Jejunal intestinal mucosa was isolated and homogenized in 300 μL of a buffer containing 0.3M trichloroacetic acid, 0.1M sodium acetate, 10 mM EDTA, 20 mM sodium bisulfate and 50 mM ascorbic acid. Following centrifugation the 5-HT levels in the supernatants were measured by HPLC. The remaining mucosal pellet was solubilized overnight at 37° C. in a 0.1% sodium dodecyl sulfate buffer in 0.1N NaOH followed by determination of protein concentrations using a BCA protein assay (Pierce, Rockford, Ill. 5-HT levels were normalized to protein and data were expressed as mean percent reduction of mucosal 5-HT levels relative to vehicle control SEM (percent 5-HT reduction). All animal studies were carried out with protocols approved by the Institutional Animal Care and Use Committee.
P-values, indicating statistical significance of the data (ANOVA) are provided in the table: * refers to P<0.05, ** refers to P<0.01, *** refers to P<0.005, and refers to P<0.0005.

[2] = biological target: T1, Recombinant human TPH1 (MBP tagged) (Homo sapiens, UniProt P17752); experiment: TPH1 in vitro inhibition assay (kinetic fluorescence); type: biochemical
T1 construct: cloning full length human TPH1 cDNA in to a bacterial pMAL-c5E expression vector; made in house; host or cells: E. coli BL21 (DE3)
T1 sequence (P17752 1-444): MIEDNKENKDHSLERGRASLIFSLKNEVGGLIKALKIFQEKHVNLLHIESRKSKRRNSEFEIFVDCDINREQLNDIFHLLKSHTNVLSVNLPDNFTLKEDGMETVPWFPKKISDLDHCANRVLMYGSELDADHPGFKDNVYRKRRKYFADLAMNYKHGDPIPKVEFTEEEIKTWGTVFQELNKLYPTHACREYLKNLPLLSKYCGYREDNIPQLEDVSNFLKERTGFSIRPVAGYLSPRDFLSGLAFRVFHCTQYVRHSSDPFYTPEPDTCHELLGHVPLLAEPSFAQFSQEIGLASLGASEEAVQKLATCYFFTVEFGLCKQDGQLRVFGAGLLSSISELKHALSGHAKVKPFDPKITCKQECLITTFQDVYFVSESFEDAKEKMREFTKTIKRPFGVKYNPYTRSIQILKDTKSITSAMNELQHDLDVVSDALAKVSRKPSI
How it was run: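 Final mix: 15 nM MBP-TPH1, 30 μM Trp, 36 μM 6-methyltetrahydropterin, 25 μM ferrous ammonium sulfate, 50 mM MES pH 7.1, 1% DMSO, room temperature.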

[3] = read-out: TPH1 Range (TPH1 inhibition IC50)

IC50 [2, 3] [nM]	Structure (SMILES)	Efficacy (statistical significance of reduction of mucosal 5-HT concentrations relative to vehicle) [1]	other results
50 to 300	CC(C)Oc1cccc(-c2ccc([C@@H](Oc3cc(N4CCC5(CC4)CN[C@H](C(=O)O)C5)nc(N)n3)C(F)(F)F)cc2)c1 [Example 55av, (S)-8-(2-amino-6-((R)-2,2,2-trifluoro-1-(3′-isopropoxy-[1,1′-biphenyl]-4-yl)ethoxy)pyrimidin-4-yl)-2,8-diazaspiro[4.5]decane-3-carboxylic acid]		
50 to 300	COc1cc(F)cc(-c2ccc([C@@H](Oc3cc(N4CCC5(CC4)CN[C@H](C(=O)O)C5)nc(N)n3)C(F)(F)F)cc2)c1 [Example 55ao, (S)-8-(2-amino-6-((R)-2,2,2-trifluoro-1-(3′-fluoro-5′-methoxy-[1,1′-biphenyl]-4-yl)ethoxy)pyrimidin-4-yl)-2,8-diazaspiro[4.5]decane-3-carboxylic acid]		
300 to 3000	Cc1cc(Cl)ccc1-c1ccc([C@@H](Oc2cc(N3CCC4(CC3)CN[C@H](C(=O)O)C4)nc(N)n2)C(F)(F)F)cc1 [Example 55cp, (S)-8-(2-amino-6-((R)-1-(4′-chloro-2′-methyl-[1,1′-biphenyl]-4-yl)-2,2,2-trifluoroethoxy)pyrimidin-4-yl)-2,8-diazaspiro[4.5]decane-3-carboxylic acid]		
50 to 300	CC(C)Oc1ccc(-c2ccc([C@@H](Oc3cc(N4CCC5(CC4)CN[C@H](C(=O)O)C5)nc(N)n3)C(F)(F)F)c(N3CCOCC3)c2)cc1 [Example 36f, (S)-8-(2-amino-6-((R)-2,2,2-trifluoro-1-(4′-isopropoxy-3-morpholino-[1,1′-biphenyl]-4-yl)ethoxy)pyrimidin-4-yl)-2,8-diazaspiro[4.5]decane-3-carboxylic acid]		

Second part, the compound before the results:

Structure (SMILES)	IC50 [2, 3] [nM]	Efficacy (statistical significance of reduction of mucosal 5-HT concentrations relative to vehicle) [1]	other results
CCOC(=O)CCc1ccc(-c2ccc(-n3ccc(C)n3)c([C@@H](Oc3cc(N4CCC5(CC4)CN[C@H](C(=O)OCC)C5)nc(N)n3)C(F)(F)F)c2)cc1 [Example 63di, (S)-ethyl 8-(2-amino-6-((R)-1-(4′-(3-ethoxy-3-oxopropyl)-4-(3-methyl-1H-pyrazol-1-yl)-[1,1′-biphenyl]-3-yl)-2,2,2-trifluoroethoxy)pyrimidin-4-yl)-2,8-diazaspiro[4.5]decane-3-carboxylate]		*** (*** refers to P<0.005)	
Cc1ccn(-c2cc(Cl)ccc2[C@@H](Oc2cc(N3CCC4(CC3)CN[C@H](C(=O)OCC(C)(C)C)C4)nc(N)n2)C(F)(F)F)n1 [Example 64f, (S)-neopentyl 8-(2-amino-6-((R)-1-(4-chloro-2-(3-methyl-1H-pyrazol-1-yl)phenyl)-2,2,2-trifluoroethoxy)pyrimidin-4-yl)-2,8-diazaspiro[4.5]decane-3-carboxylate]		**** (and refers to P<0.0005)	
CCOC(=O)[C@@H]1CC2(CCN(c3cc(O[C@H](c4ccc(-c5ccc6cnccc6c5)cc4)C(F)(F)F)nc(N)n3)CC2)CN1 [Example 63by, (S)-ethyl 8-(2-amino-6-((R)-2,2,2-trifluoro-1-(4-(isoquinolin-6-yl)phenyl)ethoxy)pyrimidin-4-yl)-2,8-diazaspiro[4.5]decane-3-carboxylate]		*** (*** refers to P<0.005)	
CCOC(=O)CCc1ccc([C@@H](Oc2cc(N3CCC4(CC3)CN[C@H](C(=O)OCC)C4)nc(N)n2)C(F)(F)F)c(-n2ccc(C)n2)c1 [Example 63bz, (S)-ethyl 8-(2-amino-6-((R)-1-(4-(3-ethoxy-3-oxopropyl)-2-(3-methyl-1H-pyrazol-1-yl)phenyl)-2,2,2-trifluoroethoxy)pyrimidin-4-yl)-2,8-diazaspiro[4.5]decane-3-carboxylate]		** (** refers to P<0.01)	
Cc1ccc([C@@H](Oc2cc(N3CCC4(CC3)CN[C@H](C(=O)O)C4)nc(N)n2)C(F)(F)F)c(-n2ccc(C)n2)c1 [Example 10h, (S)-8-(2-amino-6-((R)-2,2,2-trifluoro-1-(4-methyl-2-(3-methyl-1H-pyrazol-1-yl)phenyl)ethoxy)pyrimidin-4-yl)-2,8-diazaspiro[4.5]decane-3-carboxylic acid]		*** (*** refers to P<0.005)	
CCOC(=O)[C@@H]1CC2(CCN(c3cc(O[C@H](c4ccc(-c5ccc(OC)c(OC)c5)cc4)C(F)(F)F)nc(N)n3)CC2)CN1 [Example 63g, (S)-ethyl 8-(2-amino-6-((R)-1-(3′,4′-dimethoxy-[1,1′-biphenyl]-4-yl)-2,2,2-trifluoroethoxy)pyrimidin-4-yl)-2,8-diazaspiro[4.5]decane-3-carboxylate]		*** (*** refers to P<0.005)	
CCCCc1ccc(-n2ccc(C)n2)c([C@@H](Oc2cc(N3CCC4(CC3)CN[C@H](C(=O)OCC)C4)nc(N)n2)C(F)(F)F)c1 [Example 63bq, (S)-ethyl 8-(2-amino-6-((R)-1-(5-butyl-2-(3-methyl-1H-pyrazol-1-yl)phenyl)-2,2,2-trifluoroethoxy)pyrimidin-4-yl)-2,8-diazaspiro[4.5]decane-3-carboxylate]		**** (and refers to P<0.0005)	
Cc1ccn(-c2cc(-c3ccc(C(N)=O)cc3)ccc2[C@@H](Oc2cc(N3CCC4(CC3)CN[C@H](C(=O)O)C4)nc(N)n2)C(F)(F)F)n1 [Example 1cg, (S)-8-(2-amino-6-((R)-1-(4′-carbamoyl-3-(3-methyl-1H-pyrazol-1-yl)-[1,1′-biphenyl]-4-yl)-2,2,2-trifluoroethoxy)pyrimidin-4-yl)-2,8-diazaspiro[4.5]decane-3-carboxylic acid]	< 50		
CCN(CC)C(=O)c1ccc(-c2ccc([C@@H](Oc3cc(N4CCC5(CC4)CN[C@H](C(=O)O)C5)nc(N)n3)C(F)(F)F)c(-n3ccc(C)n3)c2)cc1 [Example 1cm, (S)-8-(2-amino-6-((R)-1-(4′-(diethylcarbamoyl)-3-(3-methyl-1H-pyrazol-1-yl)-[l,l′-biphenyl]-4-yl)-2,2,2-trifluoroethoxy)pyrimidin-4-yl)-2,8-diazaspiro[4.5]decane-3-carboxylic acid]	< 50		
CCN(CC)C(=O)c1cccc(-c2cc(Cl)ccc2[C@@H](Oc2cc(N3CCC4(CC3)CN[C@H](C(=O)O)C4)nc(N)n2)C(F)(F)F)c1 [Example 34co, (S)-8-(2-amino-6-((R)-1-(5-chloro-3′-(diethylcarbamoyl)-[1,1′-biphenyl]-2-yl)-2,2,2-trifluoroethoxy)pyrimidin-4-yl)-2,8-diazaspiro[4.5]decane-3-carboxylic acid]	50 to 300		
CCc1cccc(-c2cc(Cl)ccc2[C@@H](Oc2cc(N3CCC4(CC3)CN[C@H](C(=O)O)C4)nc(N)n2)C(F)(F)F)c1 [Example 34cd, (S)-8-(2-amino-6-((R)-1-(5-chloro-3′-ethyl-[1,1′-biphenyl]-2-yl)-2,2,2-trifluoroethoxy)pyrimidin-4-yl)-2,8-diazaspiro[4.5]decane-3-carboxylic acid]	50 to 300		
Nc1nc(O[C@H](c2ccc(Cl)cc2-c2ccccc2)C(F)(F)F)cc(N2CCC3(CC2)CN[C@H](C(=O)O)C3)n1 [Example 34c, (S)-8-(2-amino-6-((R)-1-(5-chloro-[1,1′-biphenyl]-2-yl)-2,2,2-trifluoroethoxy)pyrimidin-4-yl)-2,8-diazaspiro[4.5]decane-3-carboxylic acid]			IC50 ([2]; TPH1 Range (TPH1 inhibition IC50)): 50 to 300 nM
